Patent US10434079B2, “Compositions and methods for the treatment of fatty acid metabolism disorders” (The Children's Hospital of Philadelphia, priority 2013, dated 2019)

What was measured:
wild-type VLCAD = biological target: T1, wild-type VLCAD (Mus musculus, UniProt P50544); test: Hepa 1 to 6 cells expressing FLAG-tagged wild-type VLCAD exposed to GSNO; format: cell-based
T1 construct: 3xFLAG (C); host or cells: Hepa 1 to 6 cells
T1 sequence (P50544 42-656): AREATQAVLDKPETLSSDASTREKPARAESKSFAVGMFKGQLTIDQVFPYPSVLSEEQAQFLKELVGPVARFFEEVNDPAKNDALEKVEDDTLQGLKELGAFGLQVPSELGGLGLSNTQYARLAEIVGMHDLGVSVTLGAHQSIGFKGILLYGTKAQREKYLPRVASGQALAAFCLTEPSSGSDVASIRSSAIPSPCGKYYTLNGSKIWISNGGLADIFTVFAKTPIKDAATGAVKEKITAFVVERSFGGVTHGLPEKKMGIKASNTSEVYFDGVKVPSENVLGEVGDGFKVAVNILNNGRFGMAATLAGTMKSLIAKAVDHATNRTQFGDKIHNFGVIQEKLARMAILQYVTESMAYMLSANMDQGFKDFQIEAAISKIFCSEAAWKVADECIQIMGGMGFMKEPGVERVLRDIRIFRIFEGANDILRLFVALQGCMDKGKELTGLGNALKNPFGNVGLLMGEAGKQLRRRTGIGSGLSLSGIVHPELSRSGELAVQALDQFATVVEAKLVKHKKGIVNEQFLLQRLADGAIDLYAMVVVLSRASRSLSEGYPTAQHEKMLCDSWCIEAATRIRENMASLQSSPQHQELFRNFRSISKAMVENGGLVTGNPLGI
Description: Liver homogenate (final concentration of 0.03 μg/μl) or cell lysate (final concentration of 0.09 μg/μl) in 100 mM potassium phosphate buffer (pH 7.2) containing 0.2% Triton X-100 and 0.1 mM EDTA was mixed with […] ferricenium ion, and the reaction was initiated by the addition of palmitoyl-CoA (the final volume of the assay was 130 μl). […] At least nine concentrations of palmitoyl-CoA, ranging from 0.015 to 2 mM, were used for the experimental determination of the apparent Vmax and KM of VLCAD for each animal. […] A unit of enzyme activity is defined as the amount of enzyme that causes the reduction of […] of ferricenium per minute at room temperature (ε=4.3 mM^−1 cm^−1 at 300 nm) (Izai et al. (1992) J. Biol. Chem., 267:1027-1033). […] The measurement of specific activity of VLCAD in liver homogenates (FIG. 2H) and cell lysates (FIG. 4) was performed in the presence of 0.25 and 0.125 mM palmitoyl-CoA, respectively.
Hepa 1 to 6 cells were grown in Dulbecco's modified Eagle's medium (DMEM) containing 10% fetal bovine serum, 2 mM glutamine, penicillin (100 U/ml), and streptomycin ([…]) at 37° C. in air with 5% CO2. Cells were plated at a density of 5×10^4 cells/cm^2 and cultured under normal conditions for 24 hours. Cells were transfected with FLAG®-tagged wild-type VLCAD or FLAG®-tagged C238A VLCAD with Lipofectamine® 2000 reagent (Life Technologies) according to the protocol provided by the manufacturer. Forty-eight hours after transfection, the growth medium was replaced with serum-free DMEM, and […] freshly prepared GSNO was added for 30 minutes, after which the cells were extensively washed with PBS. Cell lysates were obtained immediately or 60, 120, and 240 minutes after the removal of GSNO. The samples were protected from UV light exposure. Lysates were assayed for protein concentration, and equal amounts of protein per sample were used for organic mercury-assisted capture.

VLCAD = biological target: T2, VLCAD (Mus musculus, UniProt P50544); test: Quantification of S-nitrosylated VLCAD by organomercury capture in liver of treated mice; format: in vivo; set-up: Liver homogenate (final concentration of 0.03 μg/μl) or cell lysate; from tissue; host or cells: mouse liver (C57BL/6J wild-type, ob/ob, eNOS-/-); conditions: ob/ob mouse liver, from 25% S-nitrosylated VLCAD
T2 sequence (P50544 42-656): T1 sequence (P50544 42-656)
Description: A detailed experimental procedure for the preparation and activation of columns, homogenate preparation for reaction with organic mercury resin, has been described (Doulias et al. (2010) Proc. Natl. Acad. Sci., 107:16958-16963). Three biological replicates from each organ were analyzed. […] The false identification rate was <6% for brain and <3% for all other organs. For washes, stringent conditions were selected due to the differences in lipid content among the six organs. Columns were initially washed with 50 bed volumes of 50 mM tris-HCl (pH 7.4) containing 300 mM NaCl and 0.5% SDS, followed by 50 bed volumes of the same buffer containing 0.05% SDS. Columns were washed with 50 bed volumes of 50 mM tris-HCl containing 300 mM NaCl (pH 7.4), 1% Triton X-100, and 1 M urea, followed by 50 bed volumes of the same buffer containing 0.1% Triton X-100 and 0.1 M urea. Finally, columns were washed with 200 bed volumes of water before proteins were eluted with 10 ml of 50 mM β-mercaptoethanol in water. Samples were concentrated and analyzed by gel-LC (liquid chromatography)-MS/MS analysis. For on-column digestion after the final wash with water, the columns were washed with 10 bed volumes of 0.1 M ammonium bicarbonate. Bound proteins were subjected to digestion by the addition of Trypsin Gold (1 μg/ml) (Promega) in one bed volume of 0.1 M […] in the dark for 16 hours at room temperature. […]

[1] = 60, 120, 240 minutes after removal of GSNO and washing

N[C@@H](CCC(=O)N[C@@H](CSN=O)C(=O)NCC(=O)O)C(=O)O [GSNO, S-nitrosoglutathione]
abundance of S-nitrosylated VLCAD after removal of GSNO (wild-type VLCAD; [1]): declined over time
enzymatic-specific activity after removal of GSNO (wild-type VLCAD; [1]): declined over time
VLCAD-specific activity (wild-type VLCAD; GSNO treatment, 0.125 mM palmitoyl-CoA): significantly higher
increase of catalytic efficiency (kcat/KM) of S-nitrosylated VLCAD vs unmodified protein (VLCAD): 29 fold
